Literature values in patent publication US20040058969A1, “Novel epothilone derivatives, method for the preparation thereof and their pharmaceutical use” (priority 2000, published 2004).

Test system: P-glycoprotein-forming multiresistant tumor lines
Conditions: in vitro, relative to taxol

For C/C(=C\c1csc(C)n1)[C@@H]1C[C@@H]2O[C@@H]2CCC[C@H](C)[C@H](O)[C@@H](C)C(=O)C(C)(C)[C@@H](O)CC(=O)O1 [Epothilone A, epothilone A], the “activity against P-glycoprotein-forming multiresistant tumor lines in comparison to taxol” value is given as “significantly higher activity”.

For C/C(=C\c1csc(C)n1)[C@@H]1C[C@@H]2O[C@]2(C)CCC[C@H](C)[C@H](O)[C@@H](C)C(=O)C(C)(C)[C@@H](O)CC(=O)O1 [Epothilone B, epothilone B], the “activity against P-glycoprotein-forming multiresistant tumor lines in comparison to taxol” value is given as “significantly higher activity”.
